Source: US20240398775A1, “PHARMACEUTICAL COMPOSITION FOR USE IN TREATING COGNITIVE DECLINE OR FOR USE IN TREATING OVERWEIGHT OR OBESITY” (University of the Ryukyus, priority 2021, published 2024)

Legend:
[1] = system: HFD-fed mice; experiment: Morris water maze pattern completion test; type: in vivo, mouse; conditions: PER administration
Experimental: The Morris water maze task was performed as previously described using mice with CD, HFD, and HFD with PER treatment (49). All experiments were performed at approximately the same time of day. Mice were transported from the colony to the holding area and kept undisturbed for 30 minutes prior to the experiment. The tests were performed in a rectangular dimly lit room with a circular pool (Muromachi Kikai Co., Ltd., Tokyo, Japan) of 120 cm diameter filled with opaque water with skim milk (Morinaga, Japan) kept at room temperature. Four large objects illuminated by floor lamps were hung on the black curtains surrounding the pool as cues outside the maze. A hidden circular platform with a diameter of 10 cm was placed 1 cm below the surface of the water and the mice were trained to find the platform 4 times per day at intervals of approximately 60 minutes for 12 days. During training, the mice were released from 4 start points (N, S, E, and W) assigned in a pseudo-random manner and allowed to swim for 300 seconds.
On the thirteenth day, a probe trial was performed under the condition of full-cue (P1). […] Training and probe trial data were collected and analyzed using CompACT VAS/DV video tracking system software. The escape latency to the hidden platform (goal reaching time) was measured.

[2] = system: hippocampus and body weight of a person; experiment: Perampanel in an obese person: brain MRI, body weight, BMI; type: in vivo, human; conditions: for BMI: 26 w after surgery / 26 weeks of PER administration, before: 37.7
Experimental: The effect of an AMPA receptor antagonist on the hippocampus and body weight of a person with a BMI value of 38 was investigated. A person had quadriplegia and respiratory disorders due to a large foramen magnum tumor. After the tumor extraction, anti-epileptic treatment was performed. As an anti-epileptic treatment, 2 mg/day (thereafter, the dose was changed to 4 mg/day) of perampanel was orally administered. The transition of the body weight and the Fugl-meyer assessment score of the lower limb was observed. In addition, the size of the hippocampus was evaluated from MRI of the brain of the at 26 weeks after surgery.

[3] = system: GluA2 mRNA / (GluA1+GluA3+GluA4 mRNA); experiment: qRT-PCR of AMPAR/NMDAR subunits in hippocampal regions, Ca2+ permeability index; type: in vivo, mouse
Experimental: Hippocampal slices of 17 to 18 week old male C57BL/6J background mice (CD, HFD, and HFD with PER treatment) or 12 to 13 week old ob/ob mice (ob/ob, and ob/ob with PER treatment) were prepared as previously reported (56, 57). After preparing and collecting hippocampal slices, CA1, CA2, CA3, DG, and EC regions were separated from hippocampal slices using a dissection knife from […] background mice and ob/ob mice, respectively. The CA1, CA2, CA3, DG, and EC regions of mice were separated and immediately lysed in disposable homogenization tube BioMasher2 (trademark) (Nippi, Tokyo, Japan) using 0.5 mL of TRIzol RNA isolation reagent (Thermo Fisher Scientific, Wilmington, DE). Total RNA was individually extracted from each region according to the remaining protocol of the TRIzol RNA isolation reagent provided by the manufacturer (Thermo Fisher Scientific, Wilmington, DE). 1 μg of total RNA was reverse transcribed using PrimeScript RT Reagent Kit (Takara, Shiga, Japan). An aliquot of the obtained CDNA was diluted 1:10 and added to a master mix of TB Green Premix ExTaq (Takara, Shiga, Japan), and real-time PCR was performed using a 7500 Fast Real-Time PCR system (Applied Biosystems, Foster City, CA, USA) according to the manufacturer's instructions. The conditions for real-time PCR were as follows. 40 cycles of 95° C. for 30 seconds, then 95° C. for 5 seconds and 60° C. for 34 seconds. The fluorescence intensity was measured for each annealing step and the threshold cycle time was determined using 7500 software. In addition, relative expression levels of β-actin were normalized to respective controls (vehicle group). The relative expression level of the target gene in each sample was determined using a standard curve and further normalized to the expression level of β-actin of the same sample. The sequences of primers and probes for these genes are shown in Supplemental Table 2. The “ratio of GluA2 mRNA amount/(GluA1+GluA3+GluA4 mRNA amount” was used as a Ca^2+ permeability index.
GluA2 is edited at the Q/R site within the reentry M2 membrane loop region by adenosine deaminase (ADAR2), which acts on RNA type 2 involved in editing double-stranded RNA from adenosine (A) to inosine (I) (review, refer to 15, 16 and 17). Attempts were made to determine real-time quantitative reverse transcription polymerase chain reaction (qRT-PCR), subunit composition of AMPAR and NMDAR. Total RNA in hippocampal subregions (CA1, CA3, DG, EC) was separated, and quantitative analysis of mRNA of GluA1, GluA2, GluA3, and GluA4 for AMPAR, and GluN1, GluN2A, GluN2B, and GluN2C for NMDAR was performed by qRT-PCR. […] Based on the mRNA amount of each subunit, the ratio of GluA2 to other GluA subunits (FIG. 2B) was determined. The ratio was defined as a Ca^2+ permeability index.

[4] = system: HFD-fed mice; experiment: Five-trial social memory assay; type: in vivo, mouse; conditions: PER treatment
Experimental: Five-trial social tests were performed as previously described (19). In summary, subject mice with CD, HFD, and HFD with PER treatment were housed individually starting 7 days before the study to establish territory dominance. On the day of the test, a female mouse was presented in the cages of subject male mice, which is a subject (FIG. 2G), and 5 min trials were performed 4 times in succession at 10 min intervals. In the fifth trial, a novel female mouse was presented (FIG. 2G) and the duration of the social investigation was recorded.

[5] = system: Aβ; experiment: Aβ staining of neurosphere culture; type: cell-based, mouse; conditions: neurospheres from NL-G-F(−/−) mice, fourth day of culture, perampanel group
[6] = HFD-fed mice with PER, ratio GluA2 mRNA/(GluA1+GluA3+GluA4 mRNA), N = 5

N#Cc1ccccc1-c1cc(-c2ccccn2)cn(-c2ccccc2)c1=O [PER, 3-(2-cyanophenyl)-5-(2-pyridyl)-1-phenyl-1,2-dihydropyridine-2-one]
pattern completion ability [1]: restored
body weight of the person ([2]; obese person after administration): decreased smoothly
BMI ([2]; obese person): 31
BMI ([2]; obese person, listed as AMPA receptor antagonist): 33.4
gray matter/TIV ([2]; obese person, 26 w after surgery, oral perampanel 2 then 4 mg/day): 0.50 L/L
size of the hippocampus (MRI) ([2]; obese person, 26 weeks after surgery, PER administration): clearly increased
Ca2+-permeability index CA1 [3, 6]: 0.29 ± 0.11
Ca2+-permeability index CA3 [3, 6]: 0.26 ± 0.10
Ca2+-permeability index DG [3, 6]: 0.22 ± 0.06
Ca2+-permeability index EC [3, 6]: 0.30 ± 0.05
Ca2+ permeability index via CA1, CA3, DG and EC ([3]; HFD-fed mice, PER administration, N=5): returned to CD-fed mouse levels
GluA2 mRNA expression in CA1 ([3]; mice fed HFD with PER, qRT-PCR, p<0.05): significant increase
social memory [4]: restored social memory disturbance
Aβ staining of culture [5]: decrease in Aβ
